According to ChEMBL document CHEMBL1132242, “Stereoselective characterization of the 1,4-dihydropyridine binding site at L-type calcium channels in the resting state and the opened/inactivated state” (J Med Chem, 1999):
Values joined by “and” are separate entries in the source; they are usually repeats but may differ in a detail not shown here. Identical values can stand only once.

Key:
[1] = target: T1, Voltage-gated L-type calcium channel (Homo sapiens, UniProt Q13936+Q13698+Q01668+O60840); test: Evaluated for the free energies of binding (delta G) (in the resting state (rs) of voltage-gated L-type [Ca2+] channel (VGCCs)); type: protein assay
[2] = target: T1, Voltage-gated L-type calcium channel; test: Free energy of binding (delta G) for inactivated state (is) of voltage-gated L-type [Ca2+] channel(VGCCs); type: protein assay
[3] = target: T1, Voltage-gated L-type calcium channel; test: Difference in free energies of binding (delta G) in the Resting state (rs) and inactivated state (is) of voltage-gated L-type [Ca2+] channel(VGCCs); type: protein assay
[4] = target: T1, Voltage-gated L-type calcium channel; test: Free energies of binding(delta G)in inactivated state (is) of voltage-gated L-type [Ca2+] channel(VGCCs); type: protein assay
[5] = target: T1, Voltage-gated L-type calcium channel; test: Free energies of binding (delta G) in the Resting state (rs) of voltage-gated L-type [Ca2+] channel(VGCCs); type: protein assay

Row | Compound | Delta Gsolv | Binding energy [1] | Binding energy [2] | Binding energy [3] | Binding energy [4] | Binding energy [5]
1 | COC(=O)C1=C(C)N=C(C)/C(=C(\O)OC)C1c1ccccc1F (stereo not drawn) | -9.804 kcal/mol | -11.512 kcal/M |  |  |  | 
2 | COC(=O)C1=C(C)N=C(C)/C(=C(\O)OC)C1c1ccccc1I (stereo not drawn) | -9.18 kcal/mol | -14.731 kcal/M |  |  |  | 
3 | COC(=O)C1=C(C)N=C(C)/C(=C(\O)OC)C1c1c(F)c(F)c(F)c(F)c1F (stereo not drawn) | -9.442 kcal/mol | -14.145 kcal/M |  |  |  | 
4 | COC(=O)C1=C(C)N=C(C)/C(=C(\O)OC)C1c1ccc(Cl)cc1 (stereo in doubt; form 2) | -8.79 kcal/mol | -7.666 kcal/M |  |  |  | 
5 | COC(=O)C1=C(C)NC(C)=C([N+](=O)[O-])C1c1ccccc1OC(F)F (stereo not drawn) | -14.696 kcal/mol | -9.571 kcal/M | -10.474 kcal/M |  |  | 
6 | CC1=CC(c2ccccc2OC(F)F)C([N+](=O)[O-])=C(C)N1 (stereo in doubt; form 1) | -11.269 kcal/mol | -7.422 kcal/M | -7.783 kcal/M |  |  | 
7 | COC(=O)C1=C(C)NC(C)=C(C(=O)OC)C1c1ccccc1 | -8.706 kcal/mol and -9.458 kcal/mol | -8.58 kcal/M and -10.707 kcal/M | -10.387 kcal/M |  |  | 
8 | CC1=CC(c2ccccc2OC(F)F)C([N+](=O)[O-])=C(C)N1 (stereo in doubt; form 2) | -10.096 kcal/mol | -7.86 kcal/M | -8.28 kcal/M |  |  | 
9 | COC(=O)C1=C(C)N=C(C)/C(=C(/O)OC)C1c1cccc(Cl)c1 (stereo not drawn) | -8.94 kcal/mol | -12.685 kcal/M |  |  |  | 
10 | COC(=O)C1=C(C)NC(C)=C([N+](=O)[O-])C1c1ccccc1C(F)(F)F (stereo in doubt; form 2) | -14.15 kcal/mol | -9.7 kcal/M | -10.641 kcal/M | -0.94 kcal/M |  | 
11 | COC(=O)C1=C(C)N=C(C)/C(=C(\O)OC)C1c1ccc(C)cc1 (stereo not drawn) | -8.19 kcal/mol | -9.79 kcal/M |  |  |  | 
12 | COC(=O)C1=C(C)N=C(C)/C(=C(\O)OC)C1c1ccccc1Br (stereo not drawn) | -9.256 kcal/mol | -14.308 kcal/M |  |  |  | 
13 | COC(=O)C1=C(C)N=C(C)/C(=C(\O)OC)C1c1cccc(OC)c1 (stereo in doubt; form 1) | -9.847 kcal/mol | -9.916 kcal/M |  |  |  | 
14 | CC1=CC(c2ccccc2C(F)(F)F)C([N+](=O)[O-])=C(C)N1 (stereo in doubt; form 2) | -10.33 kcal/mol | -7.36 kcal/mol | -7.74 kcal/M | -0.38 kcal/M |  | 
15 | COC(=O)C1=C(C)N=C(C)/C(=C(\O)OC)C1c1ccccc1C (stereo not drawn) | -7.993 kcal/mol | -11.88 kcal/M |  |  |  | 
16 | CO/C(O)=C1\C(C)=NC(C)=C([N+](=O)[O-])C1c1ccccc1OC(F)F (stereo not drawn) | -14.543 kcal/mol | -9.26 kcal/M | -10.564 kcal/M |  |  | 

Row | Compound | Delta Gsolv | Binding energy [1] | Binding energy [2] | Binding energy [3] | Binding energy [4] | Binding energy [5]
17 | CC1=C([N+](=O)[O-])C(c2ccccc2C(F)(F)F)C([N+](=O)[O-])=C(C)N1 | -17.275 kcal/mol | -8.256 kcal/M | -9.11 kcal/M | -0.85 kcal/M |  | 
18 | CC1=CC(c2ccccc2C(F)(F)F)C([N+](=O)[O-])=C(C)N1 (stereo in doubt; form 1) | -10.313 kcal/mol | -6.967 kcal/M |  | -0.66 kcal/M | -7.634 kcal/M | 
19 | COC(=O)C1=C(C)N=C(C)/C(=C(\O)OC)C1c1cccc(C#N)c1 (stereo in doubt; form 1) | -10.743 kcal/mol | -9.71 kcal/M | -12.108 kcal/M |  |  | 
20 | COC(=O)C1=C(C)NC(C)=C([N+](=O)[O-])C1c1ccccc1C(F)(F)F (stereo in doubt; form 1) | -13.929 kcal/mol | -8.8 kcal/M | -10.296 kcal/M | -1.5 kcal/M |  | 
21 | CC1=C([N+](=O)[O-])C(c2ccccc2OC(F)F)C([N+](=O)[O-])=C(C)N1 | -16.994 kcal/mol | -7.82 kcal/M | -8.66 kcal/M |  |  | 
22 | COC(=O)C1=C(C)N=C(C)/C(=C(\O)OC)C1c1cccc(OC)c1 (stereo in doubt; form 2) | -9.756 kcal/mol | -7.819 kcal/M | -8.461 kcal/M |  |  | 
23 | COC(=O)C1=C(C)NC(C)=C(C(=O)OC)C1c1ccccc1[N+](=O)[O-] [NIFEDIPINE] | -14.117 kcal/mol and -14.198 kcal/mol | -12.385 kcal/M | -13.184 kcal/M |  |  | -10.502 kcal/M
24 | COC(=O)C1=C(C)N=C(C)/C(=C(\O)OC)C1c1ccc(F)cc1 (stereo not drawn) | -9.427 kcal/mol | -10.175 kcal/M |  |  |  | 
25 | COC(=O)C1=C(C)N=C(C)/C(=C(\O)OC)C1c1ccccc1Cl (stereo not drawn) | -9.26 kcal/mol | -13.34 kcal/M |  |  |  | 
26 | COC(=O)C1=C(C)N=C(C)/C(=C(\O)OC)C1c1ccccc1C#N (stereo not drawn) | -9.74 kcal/mol | -12.522 kcal/M |  |  |  | 
27 | COC(=O)C1=C(C)N=C(C)/C(=C(\O)OC)C1c1cccc(C#N)c1 (stereo in doubt; form 2) | -10.65 kcal/mol | -11.84 kcal/M |  |  |  | 
28 | COC(=O)C1=C(C)N=C(C)/C(=C(\O)OC)C1c1cccc(F)c1 (stereo not drawn) | -9.56 kcal/mol | -11.58 kcal/M |  |  |  | 
29 | COC(=O)C1=C(C)N=C(C)/C(=C(\O)OC)C1c1ccccc1OC (stereo not drawn) | -10.468 kcal/mol | -10.735 kcal/M |  |  |  | 
30 | COC(=O)C1=C(C)N=C(C)/C(=C(\O)OC)C1c1cccc(C)c1 (stereo not drawn) | -8.407 kcal/mol | -9.93 kcal/M |  |  |  | 
31 | COC(=O)C1=C(C)N=C(C)/C(=C(\O)OC)C1c1ccc(Cl)cc1 (stereo in doubt; form 1) | -9.2 kcal/mol | -8.209 kcal/M | -8.964 kcal/M |  |  | 
